Experimental data: the supplement of paper PMC10307832

Columns and labels:
Experiment in all cases: relative viability (nuclei count vs DMSO), 5 days (fraction); higher = more cells survive
Bortezomib + OSI-027 = compound: CC(C)C[C@H](NC(=O)[C@H](Cc1ccccc1)NC(=O)c1cnccn1)B(O)O [Bortezomib] + COc1cccc2cc(-c3nc([C@H]4CC[C@H](C(=O)O)CC4)n4ncnc(N)c34)[nH]c12 [OSI-027] (partner 0.5 µM)
How it was run: (§1)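 Lung cancer cell lines were seeded in 1536-well plates and dosed by pin tool the next day, with either a single drug or a fixed anchor-drug dose combined with five library-drug doses (not always all listed) spaced in √10 steps. Five days later, one step fixed the cells and stained their nuclei (final 0.05% Triton X-100, 1% formaldehyde, 1 ug/ml Hoechst), and nuclei were counted on 4× images. Relative viability is the nuclei count in treated wells divided by the count in vehicle wells, and each value is the median of duplicate plates.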

Bortezomib + Crizotinib = compound: CC(C)C[C@H](NC(=O)[C@H](Cc1ccccc1)NC(=O)c1cnccn1)B(O)O [Bortezomib] + C[C@@H](Oc1cc(-c2cnn(C3CCNCC3)c2)cnc1N)c1c(Cl)ccc(F)c1Cl [Crizotinib] (partner 1 µM)
How it was run: as §1

[1] = compound: CC1=CC(=NN1)NC2=CC(=NC(=N2)/C=C/C3=CC=CC=C3)N4CCN(CC4)C + COc1cc2c(Oc3ccc(NC(=O)C4(C(=O)Nc5ccc(F)cc5)CC4)cc3F)ccnc2cc1OCCCN1CCOCC1 [Foretinib] (partner 0.25 µM)
How it was run: as §1

Obatoclax + Pictilisib = compound: COC1=CC(c2cc3ccccc3[nH]2)=N/C1=C\c1[nH]c(C)cc1C [Obatoclax] + CS(=O)(=O)N1CCN(Cc2cc3nc(-c4cccc5[nH]ncc45)nc(N4CCOCC4)c3s2)CC1 [Pictilisib] (partner 1 µM)
How it was run: as §1

Cell Line | relative viability (Bortezomib + OSI-027; first compound 0.0002 µM) | relative viability (Bortezomib + OSI-027; first compound 0.000632 µM) | relative viability (Bortezomib + OSI-027; first compound 0.002 µM) | relative viability (Bortezomib + OSI-027; first compound 0.006325 µM) | relative viability (Bortezomib + OSI-027; first compound 0.02 µM) | relative viability (Bortezomib + Crizotinib; first compound 0.0002 µM) | relative viability (Bortezomib + Crizotinib; first compound 0.000632 µM) | relative viability (Bortezomib + Crizotinib; first compound 0.002 µM) | relative viability (Bortezomib + Crizotinib; first compound 0.006325 µM) | relative viability (Bortezomib + Crizotinib; first compound 0.02 µM) | relative viability ([1]; first compound 0.08 µM) | relative viability ([1]; first compound 0.253 µM) | relative viability ([1]; first compound 0.8 µM) | relative viability ([1]; first compound 2.53 µM) | relative viability ([1]; first compound 8 µM) | relative viability (Obatoclax + Pictilisib; first compound 0.01 µM) | relative viability (Obatoclax + Pictilisib; first compound 0.03162 µM) | relative viability (Obatoclax + Pictilisib; first compound 0.1 µM) | relative viability (Obatoclax + Pictilisib; first compound 0.3162 µM) | relative viability (Obatoclax + Pictilisib; first compound 1 µM)
PC-3 [JPC-3] | 0.807 | 0.824 | 0.806 | 0.446 | 0.122 | 1.01 | 0.98 | 0.726 | 0.934 | 0.133 | 1.01 | 1.1 | 1.02 | 0.87 | 0.493 | 0.794 | 0.676 | 0.819 | 0.685 | 0.834
HCC-44 | 0.462 | 0.523 | 0.472 | 0.252 | 0.197 | 0.816 | 0.842 | 0.839 | 0.116 | 0.153 | – | – | – | – | – | 0.69 | 0.552 | 0.577 | 0.583 | 0.246
NCI-H2405 | 0.635 | 0.589 | 0.661 | 0.319 | 0.205 | 0.88 | 0.83 | 0.834 | 0.24 | 0.15 | 1.05 | 1.07 | 1.07 | 0.878 | 0.229 | 0.508 | 0.461 | – | 0.497 | 0.392
LXF-289 | 0.773 | 0.754 | 0.803 | 0.0966 | 0.0619 | 0.809 | 0.795 | 0.896 | 0.0729 | 0.0698 | 0.996 | 1.02 | 0.873 | 0.812 | 0.194 | 0.778 | 0.773 | 0.751 | 0.72 | 0.694
LOU-NH91 | 0.688 | 0.68 | 0.581 | 0.298 | 0.251 | 0.749 | 0.708 | 0.342 | 0.314 | 0.319 | 0.94 | 0.976 | 0.912 | 0.848 | 0.507 | 0.541 | 0.503 | 0.505 | 0.469 | 0.533
A549 | – | – | – | – | – | 0.767 | 0.631 | 0.789 | 0.0392 | 0.0432 | 1.03 | 0.914 | 0.616 | 0.0324 | 0.0167 | 0.509 | 0.7 | 0.448 | 0.442 | 0.0671
H3255 | 0.593 | 0.601 | 0.466 | 0.352 | 0.28 | 0.734 | 0.914 | 0.452 | 0.195 | 0.208 | 0.799 | 1.1 | 0.822 | 0.756 | 0.631 | 0.476 | 0.491 | 0.572 | 0.456 | 0.434
NCI-H1395 | 0.574 | 0.529 | 0.639 | 0.353 | 0.271 | – | – | – | – | – | 1.11 | 1.11 | 0.93 | 0.663 | 0.347 | 0.815 | 0.488 | 0.485 | 0.811 | 0.519
Calu-6 | – | – | – | – | – | 0.712 | 0.777 | 0.81 | 0.105 | 0.0708 | 0.879 | 0.942 | 0.519 | 0.167 | 0.0898 | 0.91 | 0.963 | 0.731 | 0.491 | 0.105
SW 900 | 0.527 | 0.414 | 0.143 | 0.0928 | 0.108 | – | – | – | – | – | 0.845 | 0.831 | 0.871 | 0.605 | 0.118 | – | – | – | – | –
NCI-H1703 | – | – | – | – | – | 0.561 | 0.495 | 0.133 | 0.101 | 0.081 | 0.331 | 0.362 | 0.291 | 0.209 | 0.211 | 0.263 | 0.221 | 0.216 | 0.203 | 0.2
NCI-H522 | 0.632 | 0.556 | 0.724 | 0.439 | 0.465 | – | – | – | – | – | – | – | – | – | – | – | – | – | – | –
NCI-H1623 | 0.434 | 0.473 | 0.468 | 0.36 | 0.295 | – | – | – | – | – | 0.817 | 0.94 | 0.886 | 0.803 | 0.533 | – | – | – | – | –
NCI-H1792 | 0.687 | 0.577 | 0.563 | 0.654 | 0.497 | 0.893 | 0.974 | 0.952 | 0.933 | 0.729 | – | – | – | – | – | 0.31 | 0.26 | – | 0.281 | 0.377
NCI-H2342 | 0.656 | 0.524 | 0.616 | 0.634 | 0.587 | – | – | – | – | – | 0.918 | 1.06 | 1.14 | 1.01 | 0.578 | – | – | – | – | –
IA-LM | – | – | – | – | – | 0.996 | 0.699 | 0.559 | 0.0382 | 0.0338 | 1.07 | 1.05 | 0.906 | 0.601 | 0.103 | 0.345 | 0.326 | 0.315 | 0.113 | 0.0716
NCI-H1793 | 0.278 | 0.213 | 0.272 | 0.223 | 0.145 | – | – | – | – | – | 0.349 | 0.663 | 0.329 | 0.121 | 0.112 | 0.288 | 0.306 | 0.388 | 0.297 | 0.296
EBC-1 | – | – | – | – | – | 0.172 | 0.172 | 0.162 | 0.106 | 0.0978 | 0.107 | 0.115 | 0.103 | 0.106 | 0.0799 | 0.376 | 0.284 | 0.257 | 0.214 | 0.177
NCI-H1648 | 0.256 | 0.293 | 0.251 | 0.256 | 0.229 | – | – | – | – | – | – | – | – | – | – | – | – | – | – | –
NCI-H1299 | – | – | – | – | – | 0.943 | 0.965 | 0.969 | 0.39 | 0.152 | 1.04 | 1.06 | 1.1 | 0.4 | 0.186 | 0.74 | 0.937 | 0.637 | 0.447 | 0.129
